Test results: patent publication US12503432B2, “Ionizable lipids for nucleic acid delivery” (Global Life Sciences Solutions Canada ULC, priority 2019, dated 2025)

assay: TNS fluorescence assay: experimental pKa of formulated lipid nanoparticles; assay type: physicochemical; conditions: experimental surface pKa of empty LNP, cationic lipid/DSPC/cholesterol/PEG-lipid (50/10/38.5/1.5)
Experimental: The pKa of each cationic lipid was determined in lipid nanoparticles using an assay based on fluorescence of 6-(p-Toluidino)-2-naphthalenesulfonic acid sodium salt (TNS, Sigma Aldrich), which is a fluorescent probe for the conformational state of proteins^5. Empty lipid nanoparticles comprising of cationic lipid/DSPC/cholesterol/PEG-lipid (50/10/38.5/1.5) in distilled water at a concentration of 3.125 mM total lipid are formulated using NanoAssemblr® Spark™, and were then was characterized for LNP quality on the Zetasizer™ using a 30× dilution with 1×PBS in the low volume cuvette. Lipid nanoparticles were further diluted 4× using distilled water to 0.781 mM total lipid. TNS was prepared as a 25 μM stock solution in distilled water. Then 6.4 μL of diluted LNP samples of 0.781 mM total lipid were mixed with 10 μL of diluted TNS to a final volume of 250 μL with buffer containing 10 mM HEPES, 10 mM MES, 10 mM NH4OAc and 130 mM NaCl where the pH ranged from 3 to 9 in 0.5 pH increments.
Samples were mixed thoroughly, and the fluorescence intensity was measured at room temperature in a BioTek™ Synergy™ H1 Hybrid Multi-Mode Monochromator™ Fluorescence Microplate Reader using excitation and emission wavelengths of 321 nm and 445 nm respectively. A sigmoidal best fit analysis was applied to the fluorescence data using GraphPad Prism™ software, and the pKa was measured as the pH at half-maximal fluorescence intensity.

| SMILES | pKa |
| --- | --- |
| CC/C=C\CC1C(CC(=O)OCCC(CCCCCCCC)OC(=O)C(CCCCCC)CCCCCCCC)CCC1OC(=O)CCCN(C)C (stereo not drawn) [PNI 562] | 6.36 |
| CC/C=C\CC1C(CC(=O)OCC(COCCCCCCCC/C=C\C/C=C\CCCCC)OCCCCCCCC/C=C\C/C=C\CCCCC)CCC1OC(=O)CN1CCN(C)CC1 (stereo not drawn) [PNI 567] | 6.23 |
| CC/C=C\CC1C(CC(=O)OCC(COC(=O)CCCCCCC/C=C\C/C=C\CCCCC)OC(=O)CCCCCCC/C=C\C/C=C\CCCCC)CCC1OC(=O)CCCN(C)C (stereo not drawn) [PNI 269] | 6.28 |
| CC/C=C\CC1C(CC(=O)OCCC(CCCCCCCC/C=C\C/C=C\CCCCC)OC(=O)C(CCCCCC)CCCCCCCC)CCC1OC(=O)CCCN(C)C (stereo not drawn) [PNI 510] | 6.2 |
| CC/C=C\CC1C(CC(=O)OCC(COCCCCCCCCCCCCCC)OCCCCCCCCCCCCCC)CCC1OC(=O)CCN(C)C (stereo not drawn) [PNI 547] | 5.95 |
| CCCCCCCCCCCCCCOCC(COC(=O)CC1CCC(OC(=O)CCN(C)C)C1CCCCC)OCCCCCCCCCCCCCC (stereo not drawn) [PNI 548] | 5.5 |
| CC/C=C\CC1C(CC(=O)OCC(COC(=O)CCCCCCCC2CC2CCCCCCCC)OC(=O)CCCCCCCC2CC2CCCCCCCC)CCC1OC(=O)CCCN(C)C (stereo not drawn) [PNI 515] | 6.27 |

Continued, values first:

| pKa | SMILES |
| --- | --- |
| 5.48 | CC/C=C\CC1C(CC(=O)OCC(COCCCCCCCC/C=C\C/C=C\CCCCC)OCCCCCCCC/C=C\C/C=C\CCCCC)CCC1OC(=O)C1CCN(C)C1 (stereo not drawn) [PNI 135] |
| 5.42 | CC/C=C\CC1C(CC(=O)OCCC(CCCCCCCC/C=C\C/C=C\CCCCC)OC(=O)C(CCCCCC)CCCCCCCC)CCC1OC(=O)CCN(C)C (stereo not drawn) [PNI 552] |
| 5.5 | CC/C=C\CC1C(CC(=O)OCC(COC(=O)CCCCCCCC2CC2CCCCCCCC)OC(=O)CCCCCCCC2CC2CCCCCCCC)CCC1OC(=O)CCN(C)C (stereo not drawn) [PNI 551] |
| 5.96 | CC/C=C\CC1C(CC(=O)OCCC(CCCCCCCC/C=C\C/C=C\CCCCC)OC(=O)C(CCCCCC)CCCCCCCC)CCC1OC(=O)C1(C)CCN(C)CC1 (stereo not drawn) [PNI 563] |
| 6.77 | CCCCC/C=C\C/C=C\CCCCCCCCOCC(COC(=O)CC1CCC(OC(=O)CCCN(C)C)C1)OCCCCCCCC/C=C\C/C=C\CCCCC (stereo not drawn) [PNI 148] |
